Values after ≈ are worked out from the molar mass of the structure shown.
Columns and labels:
Format in all cases: cell-based
[1] = system: S. aureus; experiment: MIC values, S. aureus (Tables 1-4)
[2] = system: S. pneumo.; experiment: MIC values, S. pneumo. (Tables 1-4)
[3] = system: E. faecalis; experiment: MIC values, E. faecalis (Tables 1-4)
[4] = system: H. flu
[5] = system: E. coli; experiment: MIC values, E. coli (Tables 1-4)

CCCC(=O)NC1CCN(c2cc(O)c3nc4c5c6c7c(C)c(O)c5c(=O)c(c-4oc3c2)NC(=O)/C(C)=C\C=C\[C@H](C)[C@H](O)[C@@H](C)[C@@H](O)[C@@H](C)[C@H](OC(C)=O)[C@H](C)[C@@H](OC)/C=C/O[C@@](C)(O7)C6=O)CC1 [Compound 24]
MIC S. aureus [1]: 15 ng/mL (≈ 15.5 nM) | MIC S. pneumo. [2]: 1 ng/mL (≈ 1.03 nM) | MIC E. faecalis [3]: 2000 ng/mL (≈ 2060 nM) | MIC H. flu [4]: 2000 ng/mL (≈ 2060 nM) | MIC E. coli [5]: >8000 ng/mL

CO[C@H]1/C=C/O[C@@]2(C)Oc3c(C)c(O)c4c(=O)c(c5oc6cc(N7CC8CCC(C7)N8)cc(O)c6nc-5c4c3C2=O)NC(=O)/C(C)=C\C=C\[C@H](C)[C@H](O)[C@@H](C)[C@@H](O)[C@@H](C)[C@H](O)[C@@H]1C [Compound 16]
MIC S. aureus [1]: 15 ng/mL (≈ 17.3 nM) | MIC S. pneumo. [2]: 1 ng/mL (≈ 1.15 nM) | MIC E. faecalis [3]: 120 ng/mL (≈ 138 nM) | MIC H. flu [4]: 250 ng/mL (≈ 288 nM) | MIC E. coli [5]: 4000 ng/mL (≈ 4600 nM)

CO[C@H]1/C=C/O[C@@]2(C)Oc3c(C)c(O)c4c(=O)c(c5oc6cc(N7CCC(N8CCOCC8)CC7)cc(O)c6nc-5c4c3C2=O)NC(=O)/C(C)=C\C=C\[C@H](C)[C@H](O)[C@@H](C)[C@@H](O)[C@@H](C)[C@H](OC(C)=O)[C@@H]1C [Compound 9]
MIC S. aureus [1]: 15 ng/mL (≈ 15.5 nM) | MIC S. pneumo. [2]: 1 ng/mL (≈ 1.03 nM) | MIC E. faecalis [3]: 2000 ng/mL (≈ 2060 nM) | MIC H. flu [4]: 2000 ng/mL (≈ 2060 nM) | MIC E. coli [5]: 8000 ng/mL (≈ 8260 nM)

COC1C=COC2(C)Oc3c(C)c(O)c4c(=O)c(c5sc6cc(N7CC(C)N(CC8CC8)CC7C)ccc6nc-5c4c3C2=O)NC(=O)C(C)=CC=CC(C)C(O)C(C)C(O)C(C)C(O)C1C (centres unmarked) [Compound 70]
MIC S. aureus [1]: 30 ng/mL (≈ 32.4 nM) | MIC S. pneumo. [2]: 1 ng/mL (≈ 1.08 nM) | MIC E. faecalis [3]: 1000 ng/mL (≈ 1080 nM) | MIC H. flu [4]: 1000 ng/mL (≈ 1080 nM) | MIC E. coli [5]: >8000 ng/mL

COC(=O)NC1CCN(c2cc(O)c3nc4c5c6c7c(C)c(O)c5c(=O)c(c-4oc3c2)NC(=O)/C(C)=C\C=C\[C@H](C)[C@H](O)[C@@H](C)[C@@H](O)[C@@H](C)[C@H](OC(C)=O)[C@H](C)[C@@H](OC)/C=C/O[C@@](C)(O7)C6=O)CC1 [Compound 32]
MIC S. aureus [1]: 2000 ng/mL (≈ 2090 nM) | MIC S. pneumo. [2]: 4000 ng/mL (≈ 4180 nM) | MIC E. faecalis [3]: >8000 ng/mL | MIC H. flu [4]: >8000 ng/mL | MIC E. coli [5]: >8000 ng/mL

CO[C@H]1/C=C/O[C@@]2(C)Oc3c(C)c(O)c4c(=O)c(c5oc6cc(N7CCC(NC(=O)N8CCC(NC(=O)SC)CC8)CC7)cc(O)c6nc-5c4c3C2=O)NC(=O)/C(C)=C\C=C\[C@H](C)[C@H](O)[C@@H](C)[C@@H](O)[C@@H](C)[C@H](OC(C)=O)[C@@H]1C [Compound 49]
MIC S. aureus [1]: 60 ng/mL (≈ 54.6 nM) | MIC S. pneumo. [2]: 0.5 ng/mL (≈ 0.455 nM) | MIC E. faecalis [3]: 8000 ng/mL (≈ 7280 nM) | MIC H. flu [4]: 2000 ng/mL (≈ 1820 nM) | MIC E. coli [5]: >8000 ng/mL

CO[C@H]1/C=C/O[C@@]2(C)Oc3c(C)c(O)c4c(=O)c(c5oc6cc(N7CCC(C)(N(C)C)CC7)cc(O)c6nc-5c4c3C2=O)NC(=O)/C(C)=C\C=C\[C@H](C)[C@H](O)[C@@H](C)[C@@H](O)[C@@H](C)[C@H](OC(C)=O)[C@@H]1C [Compound 71]
MIC S. aureus [1]: 8 ng/mL (≈ 8.5 nM) | MIC S. pneumo. [2]: 0.12 ng/mL (≈ 0.128 nM) | MIC E. faecalis [3]: 250 ng/mL (≈ 266 nM) | MIC H. flu [4]: 500 ng/mL (≈ 531 nM) | MIC E. coli [5]: 4000 ng/mL (≈ 4250 nM)

CO[C@H]1/C=C/O[C@@]2(C)Oc3c(C)c(O)c4c(=O)c(c5oc6cc(N7CCNCC7)cc(O)c6nc-5c4c3C2=O)NC(=O)/C(C)=C\C=C\[C@H](C)[C@H](O)[C@@H](C)[C@@H](O)[C@@H](C)[C@H](O)[C@@H]1C [Compound 107]
MIC S. aureus [1]: 8 ng/mL (≈ 9.49 nM) | MIC S. pneumo. [2]: 2 ng/mL (≈ 2.37 nM) | MIC E. faecalis [3]: 60 ng/mL (≈ 71.2 nM) | MIC H. flu [4]: 120 ng/mL (≈ 142 nM) | MIC E. coli [5]: 4000 ng/mL (≈ 4750 nM)

CO[C@H]1/C=C/O[C@@]2(C)Oc3c(C)c(O)c4c(=O)c(c5oc6cc(N7CCC(NC(=O)OC(C)C)CC7)cc(O)c6nc-5c4c3C2=O)NC(=O)/C(C)=C\C=C\[C@H](C)[C@H](O)[C@@H](C)[C@@H](O)[C@@H](C)[C@H](O)[C@@H]1C [Compound 29]
MIC S. aureus [1]: 8 ng/mL (≈ 8.48 nM) | MIC S. pneumo. [2]: 0.12 ng/mL (≈ 0.127 nM) | MIC E. faecalis [3]: 2000 ng/mL (≈ 2120 nM) | MIC H. flu [4]: 1000 ng/mL (≈ 1060 nM) | MIC E. coli [5]: >8000 ng/mL

COC1C=COC2(C)Oc3c(C)c(O)c4c(=O)c(c5n(C)c6cc(N7CC(C)NC(C)C7)ccc6nc-5c4c3C2=O)NC(=O)C(C)=CC=CC(C)C(O)C(C)C(O)C(C)C(O)C1C (mixture of isomers) [Compound 97]
MIC S. aureus [1]: 1000 ng/mL | MIC S. pneumo. [2]: 2000 ng/mL | MIC E. faecalis [3]: >8000 ng/mL | MIC H. flu [4]: 4000 ng/mL | MIC E. coli [5]: >8000 ng/mL

CCCC(=O)NC1CCN(c2cc(O)c3nc4c5c6c7c(C)c(O)c5c(=O)c(c-4oc3c2)NC(=O)/C(C)=C\C=C\[C@H](C)[C@H](O)[C@@H](C)[C@@H](O)[C@@H](C)[C@H](O)[C@H](C)[C@@H](OC)/C=C/O[C@@](C)(O7)C6=O)CC1 [Compound 36]
MIC S. aureus [1]: 4 ng/mL (≈ 4.31 nM) | MIC S. pneumo. [2]: 0.03 ng/mL (≈ 0.0324 nM) | MIC E. faecalis [3]: 2000 ng/mL (≈ 2160 nM) | MIC H. flu [4]: 250 ng/mL (≈ 270 nM) | MIC E. coli [5]: >8000 ng/mL

COCCN1CCN(c2cc(O)c3nc4c5c6c7c(C)c(O)c5c(=O)c(c-4oc3c2)NC(=O)/C(C)=C\C=C\[C@H](C)[C@H](O)[C@@H](C)[C@@H](O)[C@@H](C)[C@H](O)[C@H](C)[C@@H](OC)/C=C/O[C@@](C)(O7)C6=O)CC1 [Compound 92]
MIC S. aureus [1]: 4 ng/mL (≈ 4.44 nM) | MIC S. pneumo. [2]: 0.25 ng/mL (≈ 0.277 nM) | MIC E. faecalis [3]: 120 ng/mL (≈ 133 nM) | MIC H. flu [4]: 250 ng/mL (≈ 277 nM) | MIC E. coli [5]: 8000 ng/mL (≈ 8880 nM)

CCOC(=O)NC1CCN(c2cc(O)c3nc4c5c6c7c(C)c(O)c5c(=O)c(c-4oc3c2)NC(=O)/C(C)=C\C=C\[C@H](C)[C@H](O)[C@@H](C)[C@@H](O)[C@@H](C)[C@H](O)[C@H](C)[C@@H](OC)/C=C/O[C@@](C)(O7)C6=O)CC1 [Compound 3]
MIC S. aureus [1]: 30 ng/mL (≈ 32.3 nM) | MIC S. pneumo. [2]: 0.5 ng/mL (≈ 0.538 nM) | MIC E. faecalis [3]: 120 ng/mL (≈ 129 nM) | MIC H. flu [4]: 250 ng/mL (≈ 269 nM) | MIC E. coli [5]: 4000 ng/mL (≈ 4310 nM)

CCOc1c(N2CCN(CCOC)CC2)cc(N2CCN(CCOC)CC2)c2nc3c4c5c6c(C)c(O)c4c(=O)c(c-3oc12)NC(=O)/C(C)=C\C=C\[C@H](C)[C@H](O)[C@@H](C)[C@@H](O)[C@@H](C)[C@H](O)[C@H](C)[C@@H](OC)/C=C/O[C@@](C)(O6)C5=O [Compound 95]
MIC S. aureus [1]: 120 ng/mL (≈ 112 nM) | MIC S. pneumo. [2]: 1 ng/mL (≈ 0.933 nM) | MIC E. faecalis [3]: 8000 ng/mL (≈ 7470 nM) | MIC H. flu [4]: 2000 ng/mL (≈ 1870 nM) | MIC E. coli [5]: >8000 ng/mL

CO[C@H]1/C=C/O[C@@]2(C)Oc3c(C)c(O)c4c(=O)c(c5oc6cc(N7CCC(CNC(C)=O)CC7)cc(O)c6nc-5c4c3C2=O)NC(=O)/C(C)=C\C=C\[C@H](C)[C@H](O)[C@@H](C)[C@@H](O)[C@@H](C)[C@H](O)[C@@H]1C [Compound 56]
MIC S. aureus [1]: 4 ng/mL (≈ 4.38 nM) | MIC S. pneumo. [2]: 1 ng/mL (≈ 1.1 nM) | MIC E. faecalis [3]: 120 ng/mL (≈ 131 nM) | MIC H. flu [4]: 250 ng/mL (≈ 274 nM) | MIC E. coli [5]: 8000 ng/mL (≈ 8760 nM)

COC1C=COC2(C)Oc3c(C)c(O)c4c(=O)c(c5oc6cc(N7CC8CCCN(C(C)=O)C8C7)cc(O)c6nc-5c4c3C2=O)NC(=O)C(C)=CC=CC(C)C(O)C(C)C(O)C(C)C(OC(C)=O)C1C (centres unmarked) [Compound 47]
MIC S. aureus [1]: 8 ng/mL (≈ 8.27 nM) | MIC S. pneumo. [2]: 2 ng/mL (≈ 2.07 nM) | MIC E. faecalis [3]: 1000 ng/mL (≈ 1030 nM) | MIC H. flu [4]: 250 ng/mL (≈ 259 nM) | MIC E. coli [5]: >8000 ng/mL

CO[C@H]1/C=C/O[C@@]2(C)Oc3c(C)c(O)c4c(=O)c(c5oc6cc(N7CCC(NS(C)(=O)=O)CC7)cc(O)c6nc-5c4c3C2=O)NC(=O)/C(C)=C\C=C\[C@H](C)[C@H](O)[C@@H](C)[C@@H](O)[C@@H](C)[C@H](O)[C@@H]1C [Compound 27]
MIC S. aureus [1]: 15 ng/mL (≈ 16 nM) | MIC S. pneumo. [2]: 1 ng/mL (≈ 1.07 nM) | MIC E. faecalis [3]: 1000 ng/mL (≈ 1070 nM) | MIC H. flu [4]: 120 ng/mL (≈ 128 nM) | MIC E. coli [5]: >8000 ng/mL

CCOC(=O)N1CCCC2CN(c3cc(O)c4nc5c6c7c8c(C)c(O)c6c(=O)c(c-5oc4c3)NC(=O)C(C)=CC=CC(C)C(O)C(C)C(O)C(C)C(OC(C)=O)C(C)C(OC)C=COC(C)(O8)C7=O)CC21 (centres unmarked) [Compound 40]
MIC S. aureus [1]: 60 ng/mL (≈ 60.2 nM) | MIC S. pneumo. [2]: 8 ng/mL (≈ 8.02 nM) | MIC E. faecalis [3]: 1000 ng/mL (≈ 1000 nM) | MIC H. flu [4]: 500 ng/mL (≈ 501 nM) | MIC E. coli [5]: >8000 ng/mL

CO[C@H]1/C=C/O[C@@]2(C)Oc3c(C)c(O)c4c(=O)c(c5oc6cc(N7CCC(CCO)CC7)cc(O)c6nc-5c4c3C2=O)NC(=O)/C(C)=C\C=C\[C@H](C)[C@H](O)[C@@H](C)[C@@H](O)[C@@H](C)[C@H](OC(C)=O)[C@@H]1C [Compound 61]
MIC S. aureus [1]: 4 ng/mL (≈ 4.31 nM) | MIC S. pneumo. [2]: 0.12 ng/mL (≈ 0.129 nM) | MIC E. faecalis [3]: 1000 ng/mL (≈ 1080 nM) | MIC H. flu [4]: 250 ng/mL (≈ 269 nM) | MIC E. coli [5]: >8000 ng/mL
